# Results: paper PMC5442318, “Hundreds of dual-stage antimalarial molecules discovered by a functional gametocyte screen” (Nature Communications, 2017)
# Like-named read-outs stand apart in the source and are kept apart here.
# Experiments:
# [1] = test system: P. falciparum female gametes; test: Pf FGAA with compounds added 30 min after triggering gametocyte activation (gamete-targeting); format: cell-based, Plasmodium falciparum NF54; conditions: 0h incubation time
# HepG2 cells = test: HepG2 cytotoxicity assay; format: cell-based
# In short: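 Once incubation ended, the HepG2 plates were warmed to room temperature for 30 min alongside the CellTiter-Glo reagent. Luminescent signal was developed by reagent addition and stabilized for 10 min before plate reading.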
# [2] = test system: P. falciparum stage V female gametocytes; test: P. falciparum female gametocyte activation assay (Pf FGAA), 24 h or 48 h preincubation, Pfs25 expression readout; format: cell-based, Plasmodium falciparum NF54; conditions: for Pf FGAA classification: SLOW / FAST / GAMETE from activity at 48h, 24h, 0h incubation
# In short: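 Female activation, triggered by xanthurenic acid and cooling, was scored by imaging Cy3-labelled anti-Pfs25 female gametes after 24 h at 26 °C. Beforehand, purified NF54 stage V gametocytes had been incubated with compound for either 24 h or 48 h (37 °C, 3% O2). Values are pIC50 from full-curve regression.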
# [3] = test system: P. falciparum stages IV–V gametocytes; test: Gametocytocidal ATP-depletion assay (gametocyte ATP bioluminescence); format: cell-based, Plasmodium falciparum; conditions: for inhibition at 2 µM: Plasmodium falciparum, mean
# In short: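 Read-out is luciferase luminescence of parasite ATP (BacTiter-Glo), standing in for viability. Double-purified mature stage IV–V gametocytes, 12,500 per well, were exposed 48 h at 37 °C in low-O2 gas; screening concentration 2 μM.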
# [4] = test system: P. falciparum asexual blood stages; conditions: cited from earlier work; for IC50: read-out: Pf Asexual blood stages XC50
# [5] = Plasmodium falciparum, 24h incubation time, read-out: Pf FGAA IC50 (µM) 24h
# [6] = TCAMS data, ref 1 (Gamo et al., 2010)
# [7] = TCAMS data, ref 1 (Gamo, F. J. et al., Nature 465, 305-310, 2010)
# [8] = 24h incubation time, read-out: Pf FGAA IC50 (µM) 24h
# [9] = mean, read-out: Gametocytes mean Pf FGAA IC50
# [10] = P. falciparum female gametocytes, mean, read-out: Gametocytes mean Pf FGAA IC50
# [11] = TCAMS asexual blood stage data, ref 1 (Gamo, F. J. et al., Nature 465, 305-310, 2010)
# [12] = HepG2 TOX50 versus Pf FGAA IC50
# [13] = Plasmodium falciparum, P. falciparum female gametocytes, mean, read-out: Gametocytes mean Pf FGAA IC50
Compound,HepG2 cells mean TOX50 (HepG2 cells; mean) [µM],Pf FGAA classification [2],"IC50 [4, 6] [µM]","Pf Asexual stages XC50 [4, 7] [µM]",IC50 [1] [µM],"IC50 [2, 8] [µM]","IC50 [2, 9] [µM]",Gametocytes mean ATP inhibition at 2µM (%) [3] [%],"HepG2 cells mean TOX50 (HepG2 cells; HepG2 cells, mean) [µM]","IC50 [4, 11] [µM]",also measured
Clc1ccc(Nc2nc(NCc3ccccc3)nc(N/N=C/c3ccccn3)n2)cc1 [TCMDC-138557],13.96,FAST,0.78,0.78,,,,,,,"IC50 ([1]; Plasmodium falciparum): 2.98 µM; Selectivity ratio (HepG2 cells; HepG2 TOX50 vs Pf FGAA IC50): 53.35; IC50 [2, 5]: 0.4 µM; IC50 ([2]; Plasmodium falciparum, mean, read-out: Gametocytes mean Pf FGAA IC50): 0.26 µM; inhibition at 2 µM [3]: 35.7%"
CCCCCCCN1CC[C@@H](CCCc2ccnc3ccc(OC)cc23)[C@@H](CNC)C1.O=C(O)C(=O)O [TCMDC-139875],5.89,FAST,0.21,0.21,14.4,1.86,0.73,9.45,,,
Nc1ccc2[nH]cc(C3CCN(CC4CCC(NC(=O)/C=C/c5ccc(Cl)c(Cl)c5)CC4)CC3)c2n1 (centres unmarked) [TCMDC-140064],12.59,SLOW,0.73,0.73,> 20,6.18,0.69,-8.60,,,
Clc1nc(Cl)c2c(ccn2Cc2ccccc2)n1 [TCMDC-137801],>100,FAST,0.79,0.79,> 20,2.29,1.46,-14.95,,,HepG2 cells TOX50 (HepG2 cells; HepG2 cells): >100 µM
CC(=O)Nc1ccc2[nH]cc(C3CCN(CC4CCN(C(=O)/C=C/c5ccc(Cl)c(Cl)c5)CC4)CC3)c2n1 [TCMDC-140112],12.59,SLOW,0.16,0.16,13.1,14.2,1.38,8.03,,,
CN(/N=C/C=C/c1ccc(Cl)cc1)c1nc(NCCc2ccc(O)cc2)nc(N2CCNCC2)n1 [TCMDC-138546],13.18,SLOW,0.87,0.87,> 20,11.2,1.96,-1.95,,,
Cc1cccc2nc(-c3ccc(-c4ccc(CNCCN5CCNCC5)cc4)s3)[nH]c12.O=C(O)C(F)(F)F [TCMDC-132870],,SLOW,,1.15,> 20,18.8,,,14.29,1.15,"IC50 [2, 10]: 1.53 µM; Gametocytes mean ATP inhibition at 2µM [3]: 8.76%"
O=C(O)C(F)(F)F.O=c1[nH]ccc2nc(N[C@@H]3CCNC3)nc(Nc3cc(Cl)cc(Cl)c3)c12 [TCMDC-135052],,SLOW,,0.74,15.1,2.57,,,4.79,0.74,"IC50 [2, 10]: 0.74 µM; Gametocytes mean ATP inhibition at 2µM [3]: -43.72%"
O=C(O)C(F)(F)F.O=S(=O)(NCCN1CCCC1)c1ccc(-c2cccc(CNC3Cc4ccccc4C3)c2)s1 [TCMDC-132217],,SLOW,,0.75,> 20,5.37,,,5.50,0.75,"IC50 [2, 10]: 1.29 µM; Gametocytes mean ATP inhibition at 2µM [3]: 18.03%"
COc1cccc(CCNC(C)Cc2ccc(OCCCCOc3ccccc3)cc2)c1 (centres unmarked) [TCMDC-140020],1.46,SLOW,0.74,0.74,> 20,3.72,1.51,8.01,,,
CN1CCN(Cc2ccc(-c3cc4c(Nc5ccc(OCc6cccc(F)c6)c(Cl)c5)ncnc4s3)[nH]2)CC1 [TCMDC-135458],,SLOW,,0.77,> 20,,,,10.98,0.77,"IC50 [2, 10]: 2.41 µM; Gametocytes mean ATP inhibition at 2µM [3]: -48.07%"
CN1CCC=C(C(=O)NCC(C)(C)c2nc(-c3ccc(Cl)c(O)c3)c(-c3ccncc3)[nH]2)C1.Cl [TCMDC-140700],13.36,GAMETE,1,1.00,1.61,4.68,1.91,-6.01,,,
C=CCc1cccc(CN2CCC(c3cc(O)nc(-c4ccccn4)n3)CC2)c1O [TCMDC-124851],,FAST,,1.00,,,,,11.49,1.1,"IC50 ([1]; Plasmodium falciparum): 2.42 µM; Selectivity ratio (HepG2 cells; [12]): 6.59; IC50 [2, 5]: 0.71 µM; IC50 [2, 13]: 1.74 µM; inhibition at 2 µM [3]: 17.9%"
CN(C)CCOc1ccc(NC(=O)NC(C)(C)c2nc(-c3ccc(Cl)c(O)c3)c(-c3ccncc3)[nH]2)cc1.Cl [TCMDC-140744],14.30,FAST,0.11,0.11,10.6,0.23,0.73,-0.87,,,
CCCC(=O)NC(c1ccc(C)cc1)c1ccc2cccnc2c1O (centres unmarked) [TCMDC-123605],,FAST,,0.96,,,,,9.22,0.96,"IC50 ([1]; Plasmodium falciparum): 3.99 µM; Selectivity ratio (HepG2 cells; [12]): 5.32; IC50 [2, 5]: 1 µM; IC50 [2, 13]: 1.73 µM; inhibition at 2 µM [3]: 20.2%"
N#Cc1c(F)cc(N2CCC(NCC[C@H](N)Cc3ccc(F)c(F)c3)CC2)cc1F [TCMDC-132121],,SLOW,,0.86,,,,,,0.86,"IC50 ([1]; Plasmodium falciparum): 7.08 µM; Selectivity ratio (HepG2 cells; [12]): 6.30; HepG2 cells mean TOX50 (HepG2 cells; human, 48 h): 4.58 µM; IC50 [2, 5]: 7.16 µM; IC50 [2, 13]: 0.73 µM; inhibition at 2 µM [3]: 7.46%"
Cc1cccc2nc(-c3ccc(-c4ccc(CNCc5ccc(CN)cc5)cc4)s3)[nH]c12.O=C(O)C(F)(F)F [TCMDC-132809],,FAST,,0.44,5.14,1.17,,,14.79,0.44,"IC50 [2, 10]: 0.47 µM; Gametocytes mean ATP inhibition at 2µM [3]: 36.48%"
